According to patent US7291649B2, “Forming germicidal aromatic dialdehydes with acetals” (Ethicon, Inc., priority 2005, dated 2007):

Assays:
[1] = Hydrolysis of OPA acetals to OPA in distilled water at various pH, monitored by GC/MS; assay type: physicochemical; details: room temperature
Procedure: The reactions of 1,3-dimethoxyphthalan, 1,3-diethoxyphthalan, a PEG 200 pegylated OPA acetal at various pH in distilled water were evaluated at room temperature. The acetals were suspended in distilled water, followed by pH measurement, and pH adjustment with either hydrogen chloride (HCl), phthalic acid, or sodium hydroxide (NaOH), depending on the particular pH. The mixture was stirred at room temperature and monitored by gas chromatograph/mass spectroscopy (GC/MS) at various time intervals.
The hydrolysis rate depends upon pH. Over the range of pH investigated, the lower the pH, the faster the hydrolysis rate.

[2] = Hydrolysis of 1,3-diethoxyphthalan in the presence of OPA in distilled water at various pH, monitored by GC/MS; assay type: physicochemical
Procedure: The hydrolysis of 1,3-diethoxyphthalan in the presence of OPA in distilled water at various pH was evaluated at room temperature. 1,3-Diethoxyphthalan was added to the OPA solution in distilled water, followed by pH measurement and adjustment with either HCl or NaOH, depending on the pH. The mixtures were stirred at room temperature and monitored by GC/MS at various time intervals.

[3] = Solubility in 30% polyethylene glycol plus water solution; assay type: physicochemical
[4] = Hydrolysis of the tetramethyl acetal of IPA to IPA in water, gas chromatography; assay type: physicochemical; details: pH 4.34 (HCl)
Procedure: The process takes place in two staged reactions. In one experiment, the tetramethyl acetal of IPA (0.114 g, 0.504 mmol) was suspended in 100 mL of water including 67 mg of OPA as the internal standard. A relatively large volume of water was used due to the low solubility of IPA. The pH of the water was adjusted to 4.34 with 1% HCl. At various time intervals 0.5 mL of the reaction mixture was sampled and extracted with 1 mL of ethyl acetate (EtOAc). The samples were analyzed with gas chromatography.
The diacetal starting material disappeared within 8 h, but hydrolysis of the second acetal group of the monoacetal took longer period of time.

[5] = cited from earlier work
[6] = pH = 6.95, NaOH adjusted, 120 h
[7] = pH = 6.95, NaOH adjusted, 168 h
[8] = pH = 6.95, NaOH adjusted, 240 h
[9] = pH = 6.95, NaOH adjusted, 312 h
[10] = pH = 6.95, NaOH adjusted, 480 h
[11] = pH = 6.95, NaOH adjusted, 552 h
[12] = pH = 8.9, NaOH adjusted, 1200 h

What does the source list for `CCOC1OC(OCC)c2ccccc21` (centres unmarked) [1,3-diethoxyphthalan]?
OPA (w/w %) ([1]; pH = 5.4, HCl adjusted, water, 0 h): 0.000 w/w %; OPA (w/w %) ([1]; pH = 5.4, HCl adjusted, water, 2 h): 0.024 w/w %; OPA (w/w %) ([1]; pH = 5.4, HCl adjusted, water, 48 h): 0.056 w/w %; OPA (w/w %) ([1]; pH = 5.4, HCl adjusted, water, 120 h): 0.158 w/w %; OPA (w/w %) ([1]; pH = 5.4, HCl adjusted, water, 240 h): 0.296 w/w %; OPA (w/w %) ([1]; pH = 5.4, HCl adjusted, water, 360 h): 0.525 w/w %; OPA (w/w %) ([1]; pH = 5.4, HCl adjusted, water, 480 h): 0.596 w/w %; OPA (w/w %) ([1]; pH = 6.9, water, 0 h): 0.000 w/w %; OPA (w/w %) ([1]; pH = 6.9, water, 1 h): 0.000 w/w %; OPA (w/w %) ([1]; pH = 6.9, water, 20 h): 0.010 w/w %; OPA (w/w %) ([1]; pH = 6.9, water, 144 h): 0.097 w/w %; OPA (w/w %) ([1]; pH = 6.9, water, 240 h): 0.204 w/w %; OPA (w/w %) ([1]; pH = 6.9, water, 359 h): 0.419 w/w %; OPA (w/w %) ([1]; pH = 6.9, water, 480 h): 0.476 w/w %; OPA (w/w %) ([1]; pH = 10.8, NaOH adjusted, water, 48 h): 0.0048 w/w %; OPA (w/w %) ([1]; pH = 10.8, NaOH adjusted, water, 120 h): 0.0062 w/w %; OPA (w/w %) ([1]; pH = 10.8, NaOH adjusted, water, 480 h): 0.0473 w/w %; OPA (w/w %) ([1]; pH = 10.8, NaOH adjusted, water, 720 h): 0.112 w/w %; OPA (w/w %) ([1]; pH = 10.8, NaOH adjusted, water, 960 h): 0.229 w/w %; Acetal % ([2]; pH = 6.95, NaOH adjusted, 0 h): 21.8%; OPA % ([2]; pH = 6.95, NaOH adjusted, 0 h): 78.2%; OPA (w %) ([2]; pH = 6.95, NaOH adjusted, 0 h): 0.498 w %; Acetal % ([2]; pH = 6.95, NaOH adjusted, 48 h): 18.1%; OPA % ([2]; pH = 6.95, NaOH adjusted, 48 h): 81.9%; OPA (w %) ([2]; pH = 6.95, NaOH adjusted, 48 h): 0.509 w %; Acetal % [2, 6]: 12.1%; OPA % [2, 6]: 87.9%; OPA (w %) [2, 6]: 0.527 w %; Acetal % [2, 7]: 9.4%; OPA % [2, 7]: 90.6%; OPA (w %) [2, 7]: 0.535 w %; Acetal % [2, 8]: 6.4%; OPA % [2, 8]: 93.6%; OPA (w %) [2, 8]: 0.543 w %; Acetal % [2, 9]: 4.2%; OPA % [2, 9]: 95.8%; OPA (w %) [2, 9]: 0.550 w %; Acetal % [2, 10]: 1.2%; OPA % [2, 10]: 98.8%; OPA (w %) [2, 10]: 0.559 w %; Acetal % [2, 11]: 0.7%; OPA % [2, 11]: 99.3%; OPA (w %) [2, 11]: 0.560 w %; Acetal % ([2]; pH = 8.0, NaOH adjusted, 0 h): 20.9%; OPA % ([2]; pH = 8.0, NaOH adjusted, 0 h): 79.1%; OPA (w %) ([2]; pH = 8.0, NaOH adjusted, 0 h): 0.498 w %; Acetal % ([2]; pH = 8.0, NaOH adjusted, 48 h): 21.6%; OPA % ([2]; pH = 8.0, NaOH adjusted, 48 h): 78.4%; OPA (w %) ([2]; pH = 8.0, NaOH adjusted, 48 h): 0.496 w %; Acetal % ([2]; pH = 8.0, NaOH adjusted, 144 h): 18.6%; OPA % ([2]; pH = 8.0, NaOH adjusted, 144 h): 81.4%; OPA (w %) ([2]; pH = 8.0, NaOH adjusted, 144 h): 0.505 w %; Acetal % ([2]; pH = 8.0, NaOH adjusted, 240 h): 17%; OPA % ([2]; pH = 8.0, NaOH adjusted, 240 h): 83.0%; OPA (w %) ([2]; pH = 8.0, NaOH adjusted, 240 h): 0.510 w %; Acetal % ([2]; pH = 8.0, NaOH adjusted, 312 h): 15.2%; OPA % ([2]; pH = 8.0, NaOH adjusted, 312 h): 84.8%; OPA (w %) ([2]; pH = 8.0, NaOH adjusted, 312 h): 0.515 w %; Acetal % ([2]; pH = 8.0, NaOH adjusted, 480 h): 10.4%; OPA % ([2]; pH = 8.0, NaOH adjusted, 480 h): 89.6%; OPA (w %) ([2]; pH = 8.0, NaOH adjusted, 480 h): 0.530 w %; Acetal % ([2]; pH = 8.0, NaOH adjusted, 576 h): 8.1%; OPA % ([2]; pH = 8.0, NaOH adjusted, 576 h): 91.9%; OPA (w %) ([2]; pH = 8.0, NaOH adjusted, 576 h): 0.537 w %; Acetal % ([2]; pH = 8.0, NaOH adjusted, 720 h): 3.4%; OPA % ([2]; pH = 8.0, NaOH adjusted, 720 h): 96.6%; OPA (w %) ([2]; pH = 8.0, NaOH adjusted, 720 h): 0.551 w %; Acetal % ([2]; pH = 8.0, NaOH adjusted, 840 h): 2%; OPA % ([2]; pH = 8.0, NaOH adjusted, 840 h): 98.0%; OPA (w %) ([2]; pH = 8.0, NaOH adjusted, 840 h): 0.555 w %; Acetal % ([2]; pH = 8.0, NaOH adjusted, 960 h): 1%; OPA % ([2]; pH = 8.0, NaOH adjusted, 960 h): 99.0%; OPA (w %) ([2]; pH = 8.0, NaOH adjusted, 960 h): 0.558 w %; Acetal % ([2]; pH = 8.9, NaOH adjusted, 0 h): 21.8%; OPA % ([2]; pH = 8.9, NaOH adjusted, 0 h): 78.2%; OPA (w %) ([2]; pH = 8.9, NaOH adjusted, 0 h): 0.498 w %; Acetal % ([2]; pH = 8.9, NaOH adjusted, 96 h): 21.4%; OPA % ([2]; pH = 8.9, NaOH adjusted, 96 h): 78.6%; OPA (w %) ([2]; pH = 8.9, NaOH adjusted, 96 h): 0.498 w %; Acetal % ([2]; pH = 8.9, NaOH adjusted, 240 h): 18.8%; OPA % ([2]; pH = 8.9, NaOH adjusted, 240 h): 81.2%; OPA (w %) ([2]; pH = 8.9, NaOH adjusted, 240 h): 0.507 w %; Acetal % ([2]; pH = 8.9, NaOH adjusted, 336 h): 17.2%; OPA % ([2]; pH = 8.9, NaOH adjusted, 336 h): 82.8%; OPA (w %) ([2]; pH = 8.9, NaOH adjusted, 336 h): 0.511 w %; Acetal % ([2]; pH = 8.9, NaOH adjusted, 480 h): 13.8%; OPA % ([2]; pH = 8.9, NaOH adjusted, 480 h): 86.2%; OPA (w %) ([2]; pH = 8.9, NaOH adjusted, 480 h): 0.521 w %; Acetal % ([2]; pH = 8.9, NaOH adjusted, 600 h): 11.0%; OPA % ([2]; pH = 8.9, NaOH adjusted, 600 h): 89.0%; OPA (w %) ([2]; pH = 8.9, NaOH adjusted, 600 h): 0.530 w %; Acetal % ([2]; pH = 8.9, NaOH adjusted, 720 h): 6.7%; OPA % ([2]; pH = 8.9, NaOH adjusted, 720 h): 93.3%; OPA (w %) ([2]; pH = 8.9, NaOH adjusted, 720 h): 0.542 w %; Acetal % ([2]; pH = 8.9, NaOH adjusted, 840 h): 4.6%; OPA % ([2]; pH = 8.9, NaOH adjusted, 840 h): 95.4%; OPA (w %) ([2]; pH = 8.9, NaOH adjusted, 840 h): 0.548 w %; Acetal % ([2]; pH = 8.9, NaOH adjusted, 960 h): 3.0%; OPA % ([2]; pH = 8.9, NaOH adjusted, 960 h): 97.0%; OPA (w %) ([2]; pH = 8.9, NaOH adjusted, 960 h): 0.553 w %; Acetal % [2, 12]: 1.2%; OPA % [2, 12]: 98.8%; OPA (w %) [2, 12]: 0.558 w %; Dependence of hydrolysis rate on pH ([2]; range of pH investigated): the hydrolysis rate increases with decreasing pH

What does the source list for `COC1OC(OC)c2ccccc21` (centres unmarked) [1,3-dimethoxyphthalan]?
OPA (w/w %) ([1]; pH = 5.0 (phthalic acid), water, 0 h): 0.000 w/w %; OPA (w/w %) ([1]; pH = 5.0 (phthalic acid), water, 24 h): 0.028 w/w %; OPA (w/w %) ([1]; pH = 5.0 (phthalic acid), water, 120 h): 0.166 w/w %; OPA (w/w %) ([1]; pH = 5.0 (phthalic acid), water, 240 h): 0.301 w/w %; OPA (w/w %) ([1]; pH = 5.0 (phthalic acid), water, 360 h): 0.367 w/w %; OPA (w/w %) ([1]; pH = 5.0 (phthalic acid), water, 480 h): 0.405 w/w %; OPA (w/w %) ([1]; pH = 5.0 (phthalic acid), water, 576 h): 0.417 w/w %

Which results are given for `O=Cc1cccc(C=O)c1` [IPA, 1,3-benzenedicarboxaldehyde, reference compound]?
Solubility [3]: less than 0.4%; Mole % in reaction mixture during hydrolysis ([4]; 8 h): 20.3 Mole %; wt % in reaction mixture during hydrolysis ([4]; 8 h): 0.014 wt %; Mole % in reaction mixture during hydrolysis ([4]; 32 h): 66.1 Mole %; wt % in reaction mixture during hydrolysis ([4]; 32 h): 0.045 wt %; Mole % in reaction mixture during hydrolysis ([4]; 54 h): 100 Mole %; wt % in reaction mixture during hydrolysis ([4]; 54 h): 0.068 wt %

For `COC(OC)c1cccc(C=O)c1` [Monoacetal], which “Mole % in reaction mixture during hydrolysis” value (“Mole %” for short) ([4]; 8 h) is on record?
The value was 79.7 Mole %.

What about the “wt % in reaction mixture during hydrolysis” value (shortened to “wt %”) ([4]; 8 h) of the same compound?
Its value is 0.091 wt %.

And the “Mole %” value ([4]; 32 h)?
The value was 33.9 Mole %.

And the “wt %” value ([4]; 32 h)?
The value was 0.039 wt %.

What about the “Mole %” value ([4]; 54 h) of the same compound?
Its value is 0 Mole %.

And the “wt %” value ([4]; 54 h)?
The value was 0 wt %.

With `O=Cc1ccccc1C=O` [phthalaldehyde, 1,2-benzenedicarboxaldehyde] as the compound, how does the Solubility in water [5] read?
Its Solubility in water is “about 5 % by weight”.
